Experimental data published in patent US20210147802A1, “METHODS OF GENERATING ENUCLEATED ERYTHROID CELLS USING TAURINE OR HYPOTAURINE” (Rubius Therapeutics, Inc., priority 2019, published 2021).

How the values were obtained:
[1] = test system: erythroid cells generated from human CD34+ hematopoietic stem cells; assay: Three-stage erythroid culture; maturation-phase (third) medium supplemented; FACS-based cell counting
Procedure: The effect of hypotaurine alone or in combination with myo-inositol on erythroid progenitor cell cultures was examined. Human CD34^+ hematopoietic stem cells (HSCs) were cultured in a three-stage process to generate enucleated erythroid cells. In the first stage, the CD34^+ HSCs were expanded in a T-flask in a first culture medium containing IMDM supplemented recombinant human insulin, recombinant human transferrin, recombinant human SCF, recombinant IL-3, recombinant Flt-3 ligand, and recombinant human IL-3. Subsequently, cells were transduced with a lentiviral vector encoding phenylalanine ammonia lyase. After transduction, cells were cultured in a 50 L bioreactor culture vessel containing a second culture medium containing IMDM, supplemented with recombinant human erythropoietin, recombinant human SCF, recombinant human IL3, recombinant human insulin, dexamethasone, and recombinant human transferrin. For the third stage of the process (maturation phase), an aliquot of cells was seeded into 24 well plate containing a third culture medium containing IMDM supplemented with recombinant human EPO, recombinant human SCF, recombinant human insulin, recombinant transferrin, human AB serum, and human plasma.
[…] Of note, the first, second and third culture media included a basal media (i.e., IMDM) including 0.0072 g/L of myo-inositol. Periodic sampling and cell counting was performed during the third stage using a fluorescence-activated cell sorting-based cell counter.

[2] = test system: erythroid progenitor cells; assay: Total cell density over time in cultures of erythroid progenitor cells (FIG. 1); type: cell-based; settings: culture medium including the substance during maturation; compared to methods without it
[3] = test system: erythroid progenitor cells; assay: Enucleated erythroid cell density over time in cultures of erythroid progenitor cells (FIG. 2); type: cell-based; settings: culture medium including the substance during maturation; compared to methods without it
[4] = third culture media supplemented with taurine, compared to control culture conditions (data not shown)

| SMILES | total cell density of erythroid cells ([1]; 1.0 g/L hypotaurine in third culture medium, 24 well plate, compared to control culture conditions (FIG. 1)) | enucleated erythroid cell density ([1]; 1.0 g/L hypotaurine in third culture medium, 24 well plate, compared to control culture conditions (FIG. 2)) | cell proliferation [2] | number of enucleated erythroid cells [3] | rate of enucleation [3] | enucleated erythroid cell density [1, 4] | total cell density of erythroid cells [1, 4] |
| --- | --- | --- | --- | --- | --- | --- | --- |
| NCCS(=O)O [hypotaurine] | significantly increase | significantly increase | increased | increased | increased |  |  |
| NCCS(=O)(=O)O [taurine] |  |  | increased | increased | increased | significant increase | significant increase |
